Measurements as given in patent publication US10864201B2, “Heteroaromatic compounds as Vanin inhibitors” (Boehringer Ingelheim International GmbH, priority 2018, dated 2020).

How the values were obtained:
[1] = biological target: FLAG-tagged Vanin-1 (AA 22-493, T26I) (Homo sapiens (Human), UniProt O95497, T26I); assay: Vanin-1 enzymatic assay; type: biochemical; details: formation of pantothenic acid from D-pantethine (3 μM), RapidFire MS; geometric mean in case of multiple measurements; read-out: VNN 1 IC50
Protocol: The test compounds are dissolved in 100% DMSO at a concentration of 10 mM and in a first step diluted in DMSO to a concentration of 5 mM, followed by serial dilution steps in 100% DMSO. Dilution factor and number of dilution steps may vary according to needs. Typically 8 different concentrations by 1:5 dilutions are prepared, a further intermediate dilutions of the substances is carried out with assay buffer resulting in 1% final DMSO concentration in the assay.
0.1 nM of FLAG-tagged Vanin-1 (AA 22-493, T26I, produced internally) and test compounds are incubated at room temperature for 20 minutes in assay buffer (1 mM DTT, 0.0025% Brij-35, 50 mM HEPES, pH7.5). D-Pantethine (Sigma, Cat #P2125-5G) in assay buffer is added (final concentration 3 μM) and incubated for additional 30 minutes at room temperature. Total assay volume typically is 40 μl but might be adjusted according to needs. Reaction is stopped by adding equal volume of stop solution as the reaction mixture to reach 100 nM HD-pantothenic acid (as an internal standard) and 1% TFA. Assay plates are centrifuged for 2 minutes and the formation of pantothenic acid is detected by RapidFire Mass Spectrometry (mobile phase A: 0.1% formic acid and 0.01% trifluoroacetic acid in water; mobile phase B: 47.5% acetonitrile, 47.5% methanol, 0.1% formic acid and 0.01% trifluoroacetic acid in water) using a C18, 12 μL cartridge (Agilent Cat #G9205A).
The values given in Table I result from measurements of one or more samples. In case of multiple measurements the geometric mean values are given.

Pantetheinase (vanin) = assay: Human Whole Blood assay; type: cell-based; details: formation of pantothenic acid after pantethine supplementation, RapidFire MS, read-out: HWB IC50
Protocol: Human Whole Blood assay: Pantetheinase (vanin) converts panteheine into pantothenic acid and cysteamine. Accordingly, in the described protocol vanin activity is quantified by formation of pantothenic acid after pantetheine supplementation via pantethine. The assay is applicable to identify vanin inhibitors. Compound stocks were dissolved in DMSO at 10 mM. Further dilutions were performed in RPMI 1640 medium (Gibco, #A-10491-01) and final concentrations in the assay were 0.032 nM-500 nM.
Human blood was drawn into a blood bag (1% heparin, 50 I.E./mL). Blood was aliquoted into cavities of 96-deep-well plates at 290 μL and mixed with 10 μL compound solution or vehicle (30 sec at 1400 rpm on a shaker). Equilibration followed at room temperature, 250 rpm and for 30 min. The assay was started by adding 10 μL of substrate solution (20 μM pantethine in 1 mM DTT, 0.0025% Brij-35, 50 mM HEPES, pH7.5) to each well, except for some blank wells which received […] substrate buffer (1 mM DTT, 0.0025% Brij-35, 50 mM HEPES, pH7.5) only. Samples were thoroughly shaken (30 sec, 1400 rpm) and reaction was allowed to take place at room temperature, 250 rpm and for 5 min. The reaction was stopped by addition of a vanin tool inhibitor in excess (BI-1 total conc. 10 μM). Centrifugation of the plate followed at 4° C., 665 G for 10 min. Then the blood plasma samples (100 μL) were transferred into another 96-deep-well plate and proteins were precipitated (5 min on ice) by adding 100 μL of ice cold precipitation solution (1 μM labelled pantothenic acid (di-β-alanine-13C6,15N2 calcium salt, Sigma, #705837) in acetonitrile). Afterwards the plate was centrifuged (4° C., 3220 G, 10 min) and supernatants (50 μL) were collected into another 96-deep-well plate and mixed (10 sec, 1400 rpm) with 150 μL ice cold formic acid (0.1%, Carl Roth GmbH+Co.KG, #CP03.1). The formation of pantothenic acid is detected by RapidFire Mass Spectrometry. A TripleQuad 6500+ (ABSciex, Germany) was equipped with an LC-1290 system, a RapidFire autosampler (Agilent, Germany) and a C18 cartridge Type C 12 μL (Agilent Cat #G9526-80000). Mobile phase A was consisting of 0.09% formic acid and 0.01% trifluoroacetic acid in water and mobile phase B of 0.09% formic acid and 0.01% trifluoroacetic acid in acetonitrile/methanol/water=47.5/47.5/5.

Chain of FLAG-tagged Vanin-1 (AA 22-493, T26I) (O95497 22-493 T26I): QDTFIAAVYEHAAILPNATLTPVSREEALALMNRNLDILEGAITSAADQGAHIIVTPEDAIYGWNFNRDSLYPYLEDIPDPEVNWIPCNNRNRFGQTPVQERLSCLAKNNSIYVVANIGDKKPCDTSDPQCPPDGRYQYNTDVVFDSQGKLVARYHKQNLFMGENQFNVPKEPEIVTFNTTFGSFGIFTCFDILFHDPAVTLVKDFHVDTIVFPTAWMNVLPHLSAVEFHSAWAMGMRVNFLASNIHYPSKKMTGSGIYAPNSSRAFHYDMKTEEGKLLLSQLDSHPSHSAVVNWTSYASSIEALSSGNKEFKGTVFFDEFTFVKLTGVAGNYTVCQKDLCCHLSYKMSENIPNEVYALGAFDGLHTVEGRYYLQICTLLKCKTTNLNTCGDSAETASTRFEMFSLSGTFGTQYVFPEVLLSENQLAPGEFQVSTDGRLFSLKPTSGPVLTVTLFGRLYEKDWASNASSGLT

SMILES | IC50 [1] [nM] | IC50 (Pantetheinase (vanin)) [nM]
C[C@]1(c2ccc(F)cc2)Cc2cc(C(=O)N3CC[C@H](N4CCCC4=O)C3)cnc2N1 [Example 5.3] | 0.1 | 1.5
CN(c1ncccn1)[C@H]1CCN(C(=O)c2cnc3c(c2)C[C@](C)(c2ccc(F)cc2)N3)C1 [Example 5.5] | 0.2 | 17.2
C[C@]1(c2ccc(F)cc2)Cc2cc(C(=O)N3CC4(CCOCC4)C3)cnc2N1 [Example 5.6] | 0.6 | 10.3
CC(=O)N(C)[C@H]1CCN(C(=O)c2cnc3c(c2)C[C@](C)(c2ccc(F)cc2)N3)C1 [Example 6, N-[(3S)-1-[(2R)-2-(4-Fluorophenyl)-2-methyl-1H,2H,3H-pyrrolo[2,3-b]lpyridine-5-carbonyl]-pyrrolidin-3-yl]-N-methylacetamide] | 0.2 | 1.9
CC(=O)N(C)[C@H]1CCN(C(=O)c2cnc3c(c2)C[C@](C)(c2cccc(Cl)c2)N3)C1 [Example 7.2] | 0.1 | 2
CC(=O)N(C)[C@H]1CCN(C(=O)c2cnc3c(c2)C[C@@](C)(c2cccc(Cl)c2)N3)C1 [Example 7.3] | 18.9 | 424
C[C@]1(c2cccc(Cl)c2)Cc2cc(C(=O)N3CC[C@H](N4CCOC4=O)C3)cnc2N1 [Example 7.4] | 0.1 | 1.9
C[C@]1(c2ccc(Cl)cc2)Cc2cc(C(=O)N3CC[C@H](N4CCOC4=O)C3)cnc2N1 [Example 8.2] | 0.1 | 2.6
C[C@]1(c2ccc(Cl)cc2)Cc2cc(C(=O)N3CC[C@H](N4CCCC4=O)C3)cnc2N1 [Example 8.3] | 0.1 | 3.8
CC(=O)N(C)[C@H]1CCN(C(=O)c2cnc3c(c2)C[C@](C)(c2ccc(Cl)cc2)N3)C1 [Example 9.1, N-[(3S)-1-[(2R)-2-(4-Chlorophenyl)-2-methyl-1H,2H,3H-pyrrolo[2,3-b]pyridine-5-carbonyl]pyrrolidin-3-yl]-N-methylacetamide] | 0.1 | 3
CC(=O)N(C)[C@H]1CCN(C(=O)c2cnc3c(c2)C[C@](C)(c2ccccc2)N3)C1 [Example 9.3] | 0.2 | 2.1
CC1(C)CCc2cc(C(=O)N3CC4(CCOCC4)C3)cnc2N1 [Example 11.2] | 0.3 | 4.5
CN(c1ncccn1)[C@H]1CCN(C(=O)c2cnc3c(c2)CCC(C)(C)N3)C1 [Example 11.3] | 0.2 | 2.9
CN(C(=O)C1(C)CCC1)[C@H]1CCN(C(=O)c2cnc3c(c2)CCC(C)(C)N3)C1 [Example 11.4] | 0.9 | 11.4
CC(=O)N(C)[C@H]1CCN(C(=O)c2cnc3c(c2)CCC(C)(C)N3)C1 [Example 11.6] | 0.5 | 12.6
CC1(C)CCc2cc(C(=O)N3CC[C@H](N4CCCC4=O)C3)cnc2N1 [Example 11.8] | 0.7 | 5.2
CN(C(=O)C1CC1)[C@H]1CCN(C(=O)c2cnc3c(c2)CCC(C)(C)N3)C1 [Example 11.9] | 0.7 | 3.5
CN(C(=O)C1CCC1)[C@H]1CCN(C(=O)c2cnc3c(c2)CCC(C)(C)N3)C1 [Example 11.10] | 0.6 | 10.6
CN(C(=O)C1CC(F)(F)C1)[C@H]1CCN(C(=O)c2cnc3c(c2)CCC(C)(C)N3)C1 [Example 11.11] | 0.5 | 6.9
CCC1(C)CCc2cc(C(=O)N3CC[C@H](N(C)C(C)=O)C3)cnc2N1 (stereo partly drawn) [Example 11.12] | 0.5 | 5.7
CC(=O)N(C)[C@H]1CCN(C(=O)c2cnc3c(c2)CCC(C)(c2ccccc2)N3)C1 (stereo partly drawn) [Example 12.2] | 0.3 | 8.2
